The term IC50 denotes the concentration that gives 50% inhibition. Higher therefore signals weaker potency in that assay.

Our source for the IC50 values is EP4782445A1, “CDK KINASE INHIBITOR AND USE THEREOF” (Abbisko Therapeutics Co., Ltd., priority 2023, dated 2025).

The target of experiment [1] is T1, CDK4/cyclin D3 (Homo sapiens, UniProt P11802).
T1 construct: purchased Carna
As to the kind of experiment: In vitro biochemical kinase activity assay for CDK4/cyclin D3 (HTRF). As to conditions: data marked with *: 1 mM ATP in Step 1. The method, then: II. In Vitro Biochemical Kinase Activity Assay for CDK4/Cyclin D3
The inhibitory effects of the compounds of the present invention on CDK4/cyclin D3 kinase activity were determined using an HTRF assay. The experimental process was as follows: • 1. The kinase reaction was carried out in a 384-well plate. 4.9 nM CDK4/cyclin D3 (Carna), 1 mM (or 80 µM) ATP, and 0.3 µM biotin-labeled substrate protein Rb-biotin (Cisbio) were incubated at 30°C for 90 min in a buffer system composed of 50 mM MgCl2, 1 mM DTT, and basal kinase buffer (Cisbio). • 2. The detection solution (Cisbio, containing reagents that specifically recognize phosphorylated Rb and Rb-biotin proteins, respectively) was added. The plate was then sealed with a film (to protect from light and volatilization) and incubated at 25°C for 60 min. • 3. The plate was transferred to an Envision plate reader to detect FRET signals. (The 665/615 ratio was calculated by reading the emission at 665 nm and 615 nM, respectively.) • 4. The IC50 values were determined by analyzing the inhibition at varying compound concentrations using Model 205 in the XLfit software.

The target in experiment [2] is T2, CDK6/cyclin D3 (Homo sapiens, UniProt Q00534).
T2 construct: purchased Carna
T2 sequence (Q00534 whole entry): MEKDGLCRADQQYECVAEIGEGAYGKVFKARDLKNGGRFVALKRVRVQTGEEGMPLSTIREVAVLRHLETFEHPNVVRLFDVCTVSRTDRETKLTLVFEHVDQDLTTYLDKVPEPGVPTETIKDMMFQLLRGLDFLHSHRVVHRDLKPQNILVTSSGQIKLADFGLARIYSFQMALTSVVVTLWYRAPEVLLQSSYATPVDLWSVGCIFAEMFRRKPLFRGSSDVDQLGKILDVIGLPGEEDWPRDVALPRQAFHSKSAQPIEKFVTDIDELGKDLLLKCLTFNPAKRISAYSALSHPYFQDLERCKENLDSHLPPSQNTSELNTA
T2 sequence (P30281 whole entry partner): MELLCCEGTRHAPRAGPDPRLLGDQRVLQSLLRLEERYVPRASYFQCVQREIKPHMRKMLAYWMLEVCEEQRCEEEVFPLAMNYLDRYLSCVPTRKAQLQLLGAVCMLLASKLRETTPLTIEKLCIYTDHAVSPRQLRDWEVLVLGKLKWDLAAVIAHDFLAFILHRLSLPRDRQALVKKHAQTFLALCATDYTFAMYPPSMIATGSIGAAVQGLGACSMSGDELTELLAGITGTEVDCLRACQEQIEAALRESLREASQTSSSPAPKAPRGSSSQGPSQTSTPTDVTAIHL
As to the kind of experiment: In vitro biochemical kinase activity assay for CDK6/cyclin D3 (HTRF). As to conditions: data marked with *: 1 mM ATP in Step 1. The method, then: III. In Vitro Biochemical Kinase Activity Assay for CDK6/Cyclin D3
The inhibitory effects of the compounds of the present invention on CDK6/cyclin D3 kinase activity were determined using an HTRF assay. The experimental process was as follows: 1. The kinase reaction was carried out in a 384-well plate. 0.02 nM CDK6/cyclin D3 (Carna), 1 mM (or 100 µM) ATP, and 0.3 µM biotin-labeled substrate protein Rb-biotin (Cisbio) were incubated at 30°C for 60 min in a buffer system composed of 5 mM MgCl2, 1 mM DTT, and basal kinase buffer (Cisbio). 2. The detection solution (Cisbio, containing reagents that specifically recognize phosphorylated Rb and Rb-biotin proteins, respectively) was added. The plate was then sealed with a film (to protect from light and volatilization) and incubated at 25°C for 60 min. 3. The plate was transferred to an Envision plate reader to detect FRET signals. (The 665/615 ratio was calculated by reading the emission at 665 nm and 615 nM, respectively.) 4. The IC50 values were determined by analyzing the inhibition at varying compound concentrations using Model 205 in the XLfit software.
A general note: Time-resolved FRET reads energy transfer from a long-lived donor to a nearby acceptor.

T1 sequence (P11802 whole entry): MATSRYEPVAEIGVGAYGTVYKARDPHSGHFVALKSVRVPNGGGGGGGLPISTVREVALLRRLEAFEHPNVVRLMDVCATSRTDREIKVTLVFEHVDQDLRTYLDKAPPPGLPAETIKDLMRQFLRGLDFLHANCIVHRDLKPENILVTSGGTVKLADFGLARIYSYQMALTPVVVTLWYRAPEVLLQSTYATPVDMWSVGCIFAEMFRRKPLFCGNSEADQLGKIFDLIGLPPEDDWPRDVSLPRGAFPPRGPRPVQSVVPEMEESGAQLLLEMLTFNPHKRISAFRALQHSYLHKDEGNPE
T1 sequence (P30281 whole entry partner): as the sequence (P30281 whole entry partner) above

Regarding `CCN1CC2(C1)CN(c1ccc(Nc3ncc(Cl)c(C#Cc4cnc(CN5[C@@H](C)COC[C@@H]5C)n4C(C)C)n3)nc1)C2` [Example 104, 5-chloro-4-((2-(((3 S,5 S)-3,5-dimethylmorpholino)methyl)-1-isopropyl-1H-imidazol-5-yl)ethynyl)-N-(5-(6-ethyl-2,6-diazaspiro[3.3]heptan-2-yl)pyridin-2-yl)pyrimidin-2-amine], the concentration for half-maximal inhibition (IC50) in experiment [1] was 5.57 nM; in experiment [2] it was 45.2 nM.
With `CC(C)n1c(C#Cc2nc(N[C@@H]3CCOC[C@H]3O)ncc2Cl)cnc1CN1CCC[C@H](F)C1` [Example 105, (3S,4R)-4-((5-chloro-4-((2-(((S)-3-fluoropiperidin-1-yl)methyl)-1-isopropyl-1H-imidazol-5-yl)ethynyl)pyrimidin-2-yl)amino)tetrahydro-2H-pyran-3-ol], the half-maximal inhibitory concentration (IC50) in experiment [1] was found to be 26.4 nM; in experiment [2], 413 nM.
`CC(=O)N1CCN(Cc2ccc(Nc3ncc(Cl)c(C#Cc4cnc(CN5CCC[C@H](O)C5)n4C(C)C)n3)nc2)CC1` [Example 106, (S)-1-(4-((6-((5-chloro-4-((2-((3-hydroxypiperidin-1-yl)methyl)-1-isopropyl-1H-imidazol-5-yl)ethynyl)pyrimidin-2-yl)amino)pyridin-3-yl)methyl)piperazin-1-yl)ethan-1-one]: the results for the IC50 in experiment [1] and in experiment [2] were 33.3 nM and 280 nM, respectively.
Taken in the same sequence, the figures for `CCN1CCN(Cc2ccc(Nc3ncc(Cl)c(C#Cc4cnc(CN5CCC[C@H](O)C5)n4C(C)C)n3)nc2)CC1` [Example 107, (S)-1-((5-((5-chloro-2-((5-((4-ethylpiperazin-1-yl)methyl)pyridin-2-yl)amino)pyrimidin-4-yl)ethynyl)-1-isopropyl-1H-imidazol-2-yl)methyl)piperidin-3-ol] were 8.86 nM and 116 nM.
Take `CCN1CC2(C1)CN(c1ccc(Nc3ncc(Cl)c(C#Cc4cnc(CN5CCC[C@H](O)C5)n4C(C)C)n3)nc1)C2` [Example 108, (S)-1-((5-((5-chloro-2-((5-(6-ethyl-2,6-diazaspiro[3.3]heptan-2-yl)pyridin-2-yl)amino)pyrimidin-4-yl)ethynyl)-1-isopropyl-1H-imidazol-2-yl)methyl)piperidin-3-ol]: the IC50 in experiment [1] worked out at 5.25 nM; in experiment [2] it was 51.9 nM.
With `CC(C)n1c(C#Cc2nc(N[C@@H]3CCOC[C@H]3O)ncc2Cl)cnc1CN1CCCC(C)(O)C1` (stereo partly drawn) [Example 110, 1-((5-((5-chloro-2-(((3 S,4R)-3-hydroxytetrahydro-2H-pyran-4-yl)amino)pyrimidin-4-yl)ethynyl)-1-isopropyl-1H-imidazol-2-yl)methyl)-3-methylpiperidin-3-ol], the results for the IC50 in experiment [1] and in experiment [2] were 36.1 nM and 451 nM, respectively.
Taken in the same sequence, the figures for `CC1(C)OCCn2ncc(C#Cc3nc(N[C@@H]4CCOC[C@H]4O)ncc3Cl)c21` [Example 111, (3 S,4R)-4-((5-chloro-4-((4,4-dimethyl-6,7-dihydro-4H-pyrazolo[5,1-c][1,4]oxazin-3-yl)ethynyl)pyrimidin-2-yl)amino)tetrahydro-2H-pyran-3-ol] were 47.1 nM and 335 nM.
On to `CC(C)n1c(C#Cc2nc(N[C@@H]3CCOC[C@H]3O)ncc2Cl)cnc1C1CCO1` (stereo partly drawn) [Example 112, (3S,4R)-4-((5-chloro-4-((1-isopropyl-2-(oxetan-2-yl)-1H-imidazol-5-yl)ethynyl)pyrimidin-2-yl)amino)tetrahydro-2H-pyran-3-ol], for which the IC50 in experiment [1] amounted to 179 nM; in experiment [2], 1240 nM.
For the compound `CC(C)n1c(C#Cc2nc(Nc3ccc(N4CC5(CN(CC(F)(F)F)C5)C4)cn3)ncc2Cl)cnc1CN1CCC[C@H](O)C1` [Example 113, (S)-1-((5-((5-chloro-2-((5-(6-(2,2,2-trifluoroethyl)-2,6-diazaspiro[3.3]heptan-2-yl)pyridin-2-yl)amino)pyrimidin-4-yl)ethynyl)-1-isopropyl-1H-imidazol-2-yl)methyl)piperidin-3-ol], the IC50 is 5.95 nM in experiment [1] and 45.6 nM in experiment [2].
In the case of `CC(C)n1c(C#Cc2nc(Nc3ccc(C(=O)N4CCCC4)cn3)ncc2Cl)cnc1C(C)(C)O` [Example 114, (6-((5-chloro-4-((2-(2-hydroxypropan-2-yl)-1-isopropyl-1H-imidazol-5-yl)ethynyl)pyrimidin-2-yl)amino)pyridin-3-yl)(pyrrolidin-1-yl)methanone], the half-inhibitory concentration (IC50) came to 7.99 nM in experiment [1] and 28.4 nM in experiment [2].
Taken in the same sequence, the figures for `CC(C)n1c(C#Cc2nc(Nc3ccc(N4CC5(CN(C)C5)C4)cn3)ncc2Cl)cnc1CN1CCC[C@H](O)C1` [Example 115, (S)-1-((5-((5-chloro-2-((5-(6-methyl-2,6-diazaspiro[3.3]heptan-2-yl)pyridin-2-yl)amino)pyrimidin-4-yl)ethynyl)-1-isopropyl-1H-imidazol-2-yl)methyl)piperidin-3-ol] were 2.28 nM and 17.9 nM.
As to `CC(C)n1c(C#Cc2nc(Nc3ccc(N4CC5(CN(CC(F)F)C5)C4)cn3)ncc2Cl)cnc1CN1CCC[C@H](O)C1` [Example 116, (S)-1-((5-((5-chloro-2-((5-(6-(2,2-difluoroethyl)-2,6-diazaspiro[3.3]heptan-2-yl)pyridin-2-yl)amino)pyrimidin-4-yl)ethynyl)-1-isopropyl-1H-imidazol-2-yl)methyl)piperidin-3-ol], the half-inhibitory concentration (IC50) in experiment [1] was found to be 5.7 nM; in experiment [2] it was 87.8 nM.
As to `CC(C)n1c(C#Cc2nc(N[C@@H]3CCOC[C@H]3O)ncc2Cl)cnc1C(=O)N1CCC[C@H](O)C1` [Example 117, (5-((5-chloro-2-(((3 S,4R)-3-hydroxytetrahydro-2H-pyran-4-yl)amino)pyrimidin-4-yl)ethynyl)-1-isopropyl-1H-imidazol-2-yl)((S)-3-hydroxypiperidin-1-yl)methanone], the IC50 in experiment [1] turned out to be 615 nM; in experiment [2] it was 5550 nM.
With `CC(C)n1c(C#Cc2cc(N[C@@H]3CCOC[C@H]3O)ncc2Cl)cnc1C(C)(C)O` [Example 118, (3 S,4R)-4-((5-chloro-4-((2-(2-hydroxypropan-2-yl)-1-isopropyl-1H-imidazol-5-yl)ethynyl)pyridin-2-yl)amino)tetrahydro-2H-pyran-3-ol], the results for the IC50 in experiment [1] and in experiment [2] were 21.7 nM and 135 nM, respectively.
As to `CC(C)n1c(C#Cc2nc(Nc3ccc(C4C5CN(C)CC54)cn3)ncc2Cl)cnc1C(C)(C)O` (stereo not shown) [Example 119, 2-(5-((5-chloro-2-((5-(3-methyl-3-azabicyclo[3.1.0]hexan-6-yl)pyridin-2-yl)amino)pyrimidin-4-yl)ethynyl)-1-isopropyl-1H-imidazol-2-yl)propan-2-ol], the IC50 was 5.37 nM in experiment [1] and 15.4 nM in experiment [2].
As for `CC(C)n1c(C#Cc2nc(N[C@@H]3CCOC[C@H]3O)ncc2Cl)cnc1C1CC1` [Example 120, (3 S,4R)-4-((5-chloro-4-((2-cyclopropyl-1-isopropyl-1H-imidazol-5-yl)ethynyl)pyrimidin-2-yl)amino)tetrahydro-2H-pyran-3-ol], the IC50 in experiment [1] was found to be 26.1 nM; in experiment [2], 130 nM.
With `CC(C)n1c(C#Cc2nc(N[C@@H]3CCOC[C@H]3O)ncc2Cl)cnc1C1(O)CC1` [Example 121, (3 S,4R)-4-((5-chloro-4-((2-(1-hydroxycyclopropyl)-1-isopropyl-1H-imidazol-5-yl)ethynyl)pyrimidin-2-yl)amino)tetrahydro-2H-pyran-3-ol], the values for the IC50 in experiment [1] and in experiment [2] were 9.24 nM and 75.9 nM, respectively.
For `CCN1CCN(Cc2ccc(Nc3ncc(Cl)c(C#Cc4cnc(C(C)O)n4C(C)C)n3)nc2)CC1` (stereo not shown) [Example 122, 1-(5-((5-chloro-2-((5-((4-ethylpiperazin-1-yl)methyl)pyridin-2-yl)amino)pyrimidin-4-yl)ethynyl)-1-isopropyl-1H-imidazol-2-yl)ethan-1-ol], the IC50 in experiment [1] was determined as 2.07 nM; in experiment [2], 7.84 nM.
On to `CC(C)n1c(C#Cc2nc(N[C@@H]3CCOC[C@H]3O)ncc2Cl)cnc1[C@@H](C)N1CCC[C@H](O)C1` [Example 123, (S)-1-((R)-1-(5-((5-chloro-2-(((3 S,4R)-3-hydroxytetrahydro-2H-pyran-4-yl)amino)pyrimidin-4-yl)ethynyl)-1-isopropyl-1H-imidazol-2-yl)ethyl)piperidin-3-ol], for which the results for the IC50 in experiment [1] and in experiment [2] were 36.9 nM and 545 nM, respectively.
Regarding `CC(C)n1c(C#Cc2nc(N[C@@H]3CCOC[C@H]3O)ncc2Cl)cnc1[C@H](C)N1CCC[C@H](O)C1` [Example 124, (S)-1-((S)-1-(5-((5-chloro-2-(((3 S,4R)-3-hydroxytetrahydro-2H-pyran-4-yl)amino)pyrimidin-4-yl)ethynyl)-1-isopropyl-1H-imidazol-2-yl)ethyl)piperidin-3-ol], the results for the IC50 in experiment [1] and in experiment [2] were 182 nM and 1160 nM, respectively.
